Common to all, as to format: in vivo
Test [1] relates to Alopecurus myosuroides (ALOMY). The test can be described thus: Pre-emergence biological efficacy, glasshouse pot test. The settings on record: 312 h, pre-emergence, 1,000 g/ha, evaluated after 13 days (100=total damage; 0=no damage), read-out: Percentage damage ALOMY. The gist of the method: (§1)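 One day after seeds were sown in pots, compound was sprayed at 1000 or 250 g/ha. Plants were kept at 24/16 °C with 14 h light and 65% humidity and watered twice daily; damage was graded at day 13 (0 none, 100 total).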

Test [2] relates to Amaranthus retoflexus (AMARE). Described as above. The settings on record: Amaranthus retroflexus, 312 h; pre-emergence, 1,000 g/ha, evaluated after 13 days (100=total damage; 0=no damage); read-out: Percentage damage AMARE. In outline:
as §1

Test [3] concerns Echinochloa crus-galli (ECHCG). The test is described as above. The settings on record: 312 h, pre-emergence, 1,000 g/ha, evaluated after 13 days (100=total damage; 0=no damage), read-out: Percentage damage ECHCG. The gist of the method:
as §1

Test [4] relates to Ipomea hederaceae (IPOHE). The description is as above. The settings on record: Ipomoea hederacea, 312 h; pre-emergence, 1,000 g/ha, evaluated after 13 days (100=total damage; 0=no damage); read-out: Percentage damage IPOHE. In outline:
as §1

Test [5] has as its system Setaria faberi (SETFA). The test is described as above. The following applies: 312 h, pre-emergence, 1,000 g/ha, evaluated after 13 days (100=total damage; 0=no damage), read-out: Percentage damage SETFA. In outline: as §1
For test [6], the system named is Solanum nigrum (SOLNI). The test is described as above. The following applies: 312 h, pre-emergence, 1,000 g/ha, evaluated after 13 days (100=total damage; 0=no damage), read-out: Percentage damage SOLNI. The gist of the method:
as §1

Test [7] concerns Alopecurus myosuroides (ALOMY). The test can be described thus: Post-emergence biological efficacy, glasshouse pot test. The settings on record: 312 h, post-emergence, 1,000 g/ha, evaluated after 13 days (100=total damage; 0=no damage), read-out: Percentage damage caused to weed species, ALOMY. The gist of the method: (§2)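 Plants were sown in standard soil and grown 8 days in a glasshouse (24/16° C. day/night, 14 hours light, 65% humidity), then sprayed post-emergence at 1000 or 250 g/ha from acetone/water (50:50) with 0.5% Tween 20. Damage was scored visually after 13 days (0 = none, 100 = total).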

Test [8] relates to Amaranthus retoflexus (AMARE). The description is as above. The settings on record: Amaranthus retroflexus, 312 h; post-emergence, 1,000 g/ha, evaluated after 13 days (100=total damage; 0=no damage); read-out: Percentage damage caused to weed species, AMARE. The gist of the method: as §2
Test [9] relates to Echinochloa crus-galli (ECHCG). Described as above. The settings on record: 312 h, post-emergence, 1,000 g/ha, evaluated after 13 days (100=total damage; 0=no damage), read-out: Percentage damage caused to weed species, ECHCG. The gist of the method:
as §2

The subject of test [10] is Ipomea hederaceae (IPOHE). Described as above. The settings on record: Ipomoea hederacea, 312 h; post-emergence, 1,000 g/ha, evaluated after 13 days (100=total damage; 0=no damage); read-out: Percentage damage caused to weed species, IPOHE. The gist of the method:
as §2

The test system of test [11] is Setaria faberi (SETFA). The test is described as above. The following applies: 312 h, post-emergence, 1,000 g/ha, evaluated after 13 days (100=total damage; 0=no damage), read-out: Percentage damage caused to weed species, SETFA. The gist of the method: as §2
Test [12] has as its system Solanum nigrum (SOLNI). Described as above. The following applies: 312 h, post-emergence, 1,000 g/ha, evaluated after 13 days (100=total damage; 0=no damage), read-out: Percentage damage caused to weed species, SOLNI. The gist of the method:
as §2

As for `COC(=O)c1nc(C2CC2)nc(Nc2ccc(Cl)c(Cl)c2)c1Cl` [Compound 4-42, 5-Chloro-2-cyclopropyl-4-(3,4-dichlorophenyl-amino)-6-methoxycarbonyl-pyrimidine], the pest or weed control at 1000 g/ha is 10% in test [1]; 30% in test [2]; 20% in test [3]; 0% in [4]; 10% in the test with Setaria faberi (SETFA) [5]; 0% in the test on Solanum nigrum (SOLNI) [6]. The pest or weed control at 1000 g/ha in test [7] was 10%; in test [8], 50%; in [9] it was 10%; in test [10], 60%; with Setaria faberi (SETFA) [11], 0%; with Solanum nigrum (SOLNI) [12] it was 50%.

For `COC(=O)c1nc(C2CC2)nc(NCC2CC2)c1Cl` [Compound 4-43, 5-Chloro-2-cyclopropyl-4-cyclopropylmethyl-amino-6-methoxycarbonyl-pyrimidine], the pest or weed control at 1000 g/ha amounted to 70% in test [1]; 90% in test [2]; 70% in test [3]; 80% in test [4]; 70% in the test with Setaria faberi (SETFA) [5]; 90% in the test with Solanum nigrum (SOLNI) [6]. Also, the pest or weed control at 1000 g/ha in test [7] amounted to 60%; in test [8] it was 100%; in test [9] it was 70%; in [10], 100%; in the test on Setaria faberi (SETFA) [11], 100%; in the test on Solanum nigrum (SOLNI) [12], 90%.

Take `COC(=O)c1nc(C2CC2)nc(NCC2CCCCC2)c1Cl` [Compound 4-49, 5-Chloro-4-cyclohexylmethyl-amino-2-cyclo-propyl-6-methoxy-carbonylpyrimidine]: the pest or weed control at 1000 g/ha in test [1] is 0%; in [2] it was 10%; in test [3], 0%; in test [4], 40%; with Setaria faberi (SETFA) [5] it was 0%; in the test on Solanum nigrum (SOLNI) [6] it was 30%. Moreover, the pest or weed control at 1000 g/ha worked out at 10% in test [7]; 100% in test [8]; 40% in test [9]; 70% in test [10]; 40% in the test with Setaria faberi (SETFA) [11]; 70% with Solanum nigrum (SOLNI) [12].

Regarding `COC(=O)c1nc(C2CC2)nc(NCC2(O)CCCCC2)c1Cl` [Compound 4-50, 5-Chloro-2-cyclopropyl-4-[(1-hydroxycyclohex-1-yl)methylamino]-6-methoxycarbonyl-pyrimidine], the pest or weed control at 1000 g/ha in test [1] stood at 10%; in test [2] it was 100%; in test [3], 10%; in test [4], 100%; in the test on Setaria faberi (SETFA) [5] it was 10%; with Solanum nigrum (SOLNI) [6], 100%. The pest or weed control at 1000 g/ha was 10% in test [7]; 100% in test [8]; 10% in [9]; 70% in test [10]; 50% with Setaria faberi (SETFA) [11]; 80% with Solanum nigrum (SOLNI) [12].

As to `COC(=O)c1nc(C2CC2)nc(NCC2CCC(C#N)CC2)c1Cl` (stereo not drawn) [Compound 4-51, 5-Chloro-4-[(4-cyanocyclohexyl)methylamino]-2-cyclopropyl-6-methoxycarbonyl-pyrimidine], the pest or weed control at 1000 g/ha in test [1] came out at 0%; in [2], 30%; in [3], 0%; in test [4] it was 50%; in the test with Setaria faberi (SETFA) [5], 0%; in the test with Solanum nigrum (SOLNI) [6], 10%. The pest or weed control at 1000 g/ha in test [7] stood at 10%; in test [8], 50%; in test [9], 20%; in test [10], 60%; in the test on Setaria faberi (SETFA) [11], 50%; in the test on Solanum nigrum (SOLNI) [12], 50%.

`COC(=O)c1nc(C2CC2)nc(NCC2CCCCCCC2)c1Cl` [Compound 4-52, 5-Chloro-4-cyclooctylmethyl-amino-2-cyclo-propyl-6-methoxy-carbonylpyrimidine]: the pest or weed control at 1000 g/ha is 0% in [1]; 40% in test [2]; 0% in test [3]; 0% in test [4]; 0% in the test with Setaria faberi (SETFA) [5]; 30% in the test on Solanum nigrum (SOLNI) [6]. Besides, the pest or weed control at 1000 g/ha worked out at 0% in [7]; 30% in test [8]; 20% in test [9]; 50% in test [10]; 20% in the test on Setaria faberi (SETFA) [11]; 60% in the test with Solanum nigrum (SOLNI) [12].

Turning to `COC(=O)c1nc(C2CC2)nc(NCC2CCCO2)c1Cl` (stereo not drawn) [Compound 4-53, 5-Chloro-2-cyclopropyl-6-methoxy carbonyl-4-(tetrahydrofuran-2-ylmethylamino)-pyrimidine], the pest or weed control at 1000 g/ha in test [1] came to 10%; in test [2], 60%; in [3] it was 0%; in test [4], 60%; in the test with Setaria faberi (SETFA) [5], 0%; in the test with Solanum nigrum (SOLNI) [6], 40%. Further, the pest or weed control at 1000 g/ha in test [7] came to 20%; in [8] it was 100%; in [9], 30%; in [10], 100%; with Setaria faberi (SETFA) [11] it was 40%; in the test with Solanum nigrum (SOLNI) [12], 90%.

Take `COC(=O)c1nc(C2CC2)nc(NCC2(OC)C=CC(OC)O2)c1Cl` (stereo not drawn) [Compound 4-55, 5-Chloro-2-cyclopropyl-4-[(2,5-dihydro-2,5-dimethoxy-furan-2-yl)methylamino]-6-methoxycarbonyl-pyrimidine]: the pest or weed control at 1000 g/ha in test [1] stood at 0%; in test [2], 100%; in [3], 0%; in test [4], 60%; in the test with Setaria faberi (SETFA) [5], 0%; in the test on Solanum nigrum (SOLNI) [6] it was 10%. For the same compound, the pest or weed control at 1000 g/ha in test [7] turned out to be 10%; in [8], 100%; in test [9] it was 0%; in test [10], 50%; in the test with Setaria faberi (SETFA) [11], 30%; with Solanum nigrum (SOLNI) [12], 80%.

As to `COC(=O)c1nc(C2CC2)nc(NCC2CCC=CO2)c1Cl` (stereo not drawn) [Compound 4-56, 5-Chloro-2-cyclopropyl-4-[(3,4-dihydro-2H-pyran-2-yl)methylamino]-6-methoxy-carbonylpyrimidine], the pest or weed control at 1000 g/ha is 40% in test [1]; 100% in [2]; 30% in test [3]; 100% in test [4]; 20% with Setaria faberi (SETFA) [5]; 90% with Solanum nigrum (SOLNI) [6]. Besides, the pest or weed control at 1000 g/ha in [7] was 20%; in test [8], 100%; in test [9] it was 30%; in test [10] it was 80%; in the test on Setaria faberi (SETFA) [11], 40%; with Solanum nigrum (SOLNI) [12] it was 80%.

For the origin of these results see patent publication US20110086759A1, “CHEMICAL COMPOUNDS” (SYNGENTA CROP PROTECTION, INC., priority 2007, published 2011).
